Test results as given in patent publication US12138256B2, “Treatment of cardiopulmonary disorders” (Bayer Aktiengesellschaft, priority 2021, dated 2024).
“And” between values parts separate entries of the source, which are not always exact repeats. Equal values may be shown once.

Test system: thromboxane analog U46619 induced PAH in minipigs
Test: Haemodynamics (PAP, BP) in the anesthetized thromboxane challenged PAH minipig after inhaled (nebulized) application (C-2.1)
Assay type: in vivo, Göttingen minipig
Details: for PAP % change vs. baseline / PAP % changes vs prevalue, mean / BP % change vs. baseline: 100 μg/kg nominal dose; for PAP % change vs. baseline / BP % change vs. baseline: individual animals; for PAP % changes vs prevalue, mean: n = 3; for % changes in BP vs baseline / % changes in PAP vs baseline: inhaled 30 μg/kg
Procedure, shortened: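 Anesthetized, ventilated Göttingen minipigs (2-6 kg) given continuous infusion (0.3-0.75 μg/kg/min) to raise mean PAP above 25 mmHg, dosing starting after a 30 min plateau. Compound in 1% DMSO/0.2% citric acid, pH 8, nebulized via Aeroneb Pro into the inspiratory arm (~7 min; stock 300 μg/kg). PAP by Swan-Ganz catheter, BP via carotid catheter.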

**Q.** Which results are given for `O=C(O)c1ccc(CCN(CCc2ccccc2OCc2ccc(-c3ccc(C(F)(F)F)cc3)cc2Cl)[C@H]2CCCc3nc(C(=O)O)ccc32)cc1` [comparative example 11, (5S)-5-{[2-(4-carboxyphenyl)ethyl][2-(2-{[3-chloro-4′-(trifluoromethyl)[biphenyl]-4-yl]methoxy}phenyl)ethyl]amino}-5,6,7,8-tetrahydroquinoline-2-carboxylic acid]?
**A.** PAP % change vs. baseline (inhaled, time 190 min): 77.0% and 61.7% and 68.1%; PAP % changes vs prevalue, mean (inhaled, time 190 min): −30.5%; BP % change vs. baseline (inhaled, time 200 min): 99.9% and 90.4% and 98.2%; PAP % change vs. baseline (inhaled, time 200 min): 77.0% and 62.5% and 68.2%; PAP % changes vs prevalue, mean (inhaled, time 200 min): −30.9%; BP % change vs. baseline (inhaled, time 210 min): 98.8% and 90.4% and 97.3%; PAP % change vs. baseline (inhaled, time 210 min): 76.5% and 62.0% and 67.9%; PAP % changes vs prevalue, mean (inhaled, time 210 min): −30.6%; BP % change vs. baseline (inhaled, time 220 min): 101.0% and 90.4% and 97.3%; PAP % change vs. baseline (inhaled, time 220 min): 77.2% and 61.2% and 68.1%; PAP % changes vs prevalue, mean (inhaled, time 220 min): −31.6%; BP % change vs. baseline (inhaled, time 230 min): 99.9% and 90.4% and 96.3%; PAP % change vs. baseline (inhaled, time 230 min): 76.3% and 61.2% and 67.7%; PAP % changes vs prevalue, mean (inhaled, time 230 min): −31.2%; BP % change vs. baseline (inhaled, time 240 min): 98.8% and 89.5% and 95.4%; PAP % change vs. baseline (inhaled, time 240 min): 76.5% and 62.5% and 67.8%; PAP % changes vs prevalue, mean (inhaled, time 240 min): −31.0%; BP % change vs. baseline (inhaled, time 250 min): 98.8% and 89.5% and 95.4%; PAP % change vs. baseline (inhaled, time 250 min): 77.6% and 63.0% and 69.1%; BP % change vs. baseline (inhaled, time 260 min): 97.7% and 87.7% and 95.4%; PAP % change vs. baseline (inhaled, time 260 min): 77.4% and 62.0% and 67.4%; BP % change vs. baseline (inhaled, time 270 min): 96.6% and 86.8% and 99.2%; PAP % change vs. baseline (inhaled, time 270 min): 77.5% and 61.5% and 67.9%; BP % change vs. baseline (inhaled, time 280 min): 96.6% and 86.8% and 96.3%; PAP % change vs. baseline (inhaled, time 280 min): 77.5% and 63.0% and 68.1%; BP % change vs. baseline (inhaled, time 290 min): 97.7% and 86.8% and 94.4%; PAP % change vs. baseline (inhaled, time 290 min): 77.3% and 62.5% and 67.8%; BP % change vs. baseline (inhaled, time 300 min): 96.6% and 85.1% and 93.4%; PAP % change vs. baseline (inhaled, time 300 min): 78.1% and 63.0% and 67.3%; BP % change vs. baseline (inhaled, time 310 min): 95.5% and 83.3% and 93.4%; PAP % change vs. baseline (inhaled, time 310 min): 76.7% and 60.5% and 68.1%; BP % change vs. baseline (inhaled, time 320 min): 95.5% and 81.6% and 92.5%; PAP % change vs. baseline (inhaled, time 320 min): 75.6% and 63.2% and 67.7%; BP % change vs. baseline (inhaled, time 330 min): 95.5% and 79.8% and 92.5%; PAP % change vs. baseline (inhaled, time 330 min): 76.5% and 63.0% and 67.6%; duration of action compared to Ventavis (PAH minipig model, inhaled): more than 6 times; time of maximum effect on PAP (after inhaled application (nebulization), comparative example 11 30 μg/kg, Cinaciguat 3 and 10 μg/kg, Riociguat 100 μg/kg, comparative example 3 30 μg/kg): around 60 min; % changes in BP vs baseline (0 min vs. start inhalation): 99%; % changes in PAP vs baseline (0 min vs. start inhalation): 100% and 99%; % changes in BP vs baseline (10 min vs. start inhalation): 99% and 100%; % changes in PAP vs baseline (10 min vs. start inhalation): 102% and 99%; % changes in BP vs baseline (20 min vs. start inhalation): 96% and 98%; % changes in PAP vs baseline (20 min vs. start inhalation): 101% and 97%; % changes in BP vs baseline (30 min vs. start inhalation): 94% and 95%; % changes in PAP vs baseline (30 min vs. start inhalation): 101% and 97%; % changes in BP vs baseline (40 min vs. start inhalation): 91%; % changes in PAP vs baseline (40 min vs. start inhalation): 100% and 97%; % changes in BP vs baseline (50 min vs. start inhalation): 89% and 90%; % changes in PAP vs baseline (50 min vs. start inhalation): 102% and 96%; % changes in BP vs baseline (60 min vs. start inhalation): 86% and 88%; % changes in PAP vs baseline (60 min vs. start inhalation): 101% and 96%; % changes in BP vs baseline (70 min vs. start inhalation): 86% and 85%; % changes in PAP vs baseline (70 min vs. start inhalation): 103% and 95%; % changes in BP vs baseline (80 min vs. start inhalation): 85% and 86%; % changes in PAP vs baseline (80 min vs. start inhalation): 101% and 94%; % changes in BP vs baseline (90 min vs. start inhalation): 85%; % changes in PAP vs baseline (90 min vs. start inhalation): 102% and 94%; % changes in BP vs baseline (100 min vs. start inhalation): 85% and 84%; % changes in PAP vs baseline (100 min vs. start inhalation): 103% and 92%; % changes in BP vs baseline (110 min vs. start inhalation): 84%; % changes in PAP vs baseline (110 min vs. start inhalation): 102% and 94%; % changes in BP vs baseline (120 min vs. start inhalation): 85% and 84%; % changes in PAP vs baseline (120 min vs. start inhalation): 101% and 92%; % changes in BP vs baseline (130 min vs. start inhalation): 85%; % changes in PAP vs baseline (130 min vs. start inhalation): 102% and 95%; % changes in BP vs baseline (140 min vs. start inhalation): 85%; % changes in PAP vs baseline (140 min vs. start inhalation): 101% and 95%; % changes in BP vs baseline (150 min vs. start inhalation): 84%; % changes in PAP vs baseline (150 min vs. start inhalation): 100% and 92%; % changes in BP vs baseline (160 min vs. start inhalation): 85% and 84%; % changes in PAP vs baseline (160 min vs. start inhalation): 100% and 91%; % changes in BP vs baseline (170 min vs. start inhalation): 86% and 85%; % changes in PAP vs baseline (170 min vs. start inhalation): 101% and 91%; % changes in BP vs baseline (180 min vs. start inhalation): 86%; % changes in PAP vs baseline (180 min vs. start inhalation): 101% and 91%; % changes in BP vs baseline (190 min vs. start inhalation): 86% and 84%; % changes in PAP vs baseline (190 min vs. start inhalation): 101% and 91%; % changes in BP vs baseline (200 min vs. start inhalation): 87% and 83%; % changes in PAP vs baseline (200 min vs. start inhalation): 101% and 90%; % changes in BP vs baseline (210 min vs. start inhalation): 88% and 84%; % changes in PAP vs baseline (210 min vs. start inhalation): 101% and 91%; % changes in BP vs baseline (220 min vs. start inhalation): 87%; % changes in PAP vs baseline (220 min vs. start inhalation): 99% and 92%; % changes in BP vs baseline (230 min vs. start inhalation): 89% and 86%; % changes in PAP vs baseline (230 min vs. start inhalation): 102% and 91%; % changes in BP vs baseline (240 min vs. start inhalation): 88% and 85%; % changes in PAP vs baseline (240 min vs. start inhalation): 99% and 92%; % changes in BP vs baseline (−5 min vs. start inhalation): 101% and 96%; % changes in PAP vs baseline (−5 min vs. start inhalation): 99%; effect on systemic BP (inhaled, 30 μg/kg): did not show any decrease on systemic BP; lung selectivity (inhaled, nominal dose of 100 μg/kg): good lung selectivity; duration of action (inhaled, Ventavis 10 μg/kg nominal dose, comparative example 11 10, 30 and 100 μg/kg nominal dose, 240 min observation interval): ≥ 240 min
